According to PubChem BioAssay AID330 (DTP/NCI, 2004):
Values joined by “and” are separate entries in the source; they are usually repeats but may differ in a detail not shown here. Equal values may be shown once. Inconclusive results and toxic doses are left out. How the source made its calls: active means survival T/C of 150% or more; inactive means T/C below 125% in these data.

Tested on: P388 leukemia ip, CD2F1 mice, survival T/C
Test: NCI In Vivo Anticancer Drug Screen. Data for tumor model P388 Leukemia (intraperitoneal) in CD2F1 (CDF1) mice
Settings: endpoint: median survival time, higher = longer survival
How it was run: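 Mice carrying the transplanted tumor received test compound or vehicle. Survival was recorded in each group, and the value is the treated-group measurement divided by that of the vehicle-treated control group.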

[1] = dose: 100.0 mg/kg/injection, schedule: Q04DX002 (ip), vehicle: saline with Tween-80
[2] = dose: 200.0 mg/kg/injection, schedule: Q04DX002 (ip), vehicle: saline with Tween-80
[3] = dose: 400.0 mg/kg/injection, schedule: Q04DX002 (ip), vehicle: saline with Tween-80
[4] = dose: 12.5 mg/kg/injection, schedule: Q01DX009 (ip), vehicle: saline with Tween-80
[5] = dose: 25.0 mg/kg/injection, schedule: Q01DX009 (ip), vehicle: saline with Tween-80
[6] = dose: 50.0 mg/kg/injection, schedule: Q01DX009 (ip), vehicle: saline with Tween-80
[7] = dose: 60.0 mg/kg/injection, schedule: Q01DX005 (ip), vehicle: saline with Tween-80
[8] = dose: 120.0 mg/kg/injection, schedule: Q01DX005 (ip), vehicle: saline with Tween-80
[9] = dose: 50.0 mg/kg/injection, schedule: Q01DX005 (ip), vehicle: saline with Tween-80
[10] = dose: 100.0 mg/kg/injection, schedule: Q01DX005 (ip), vehicle: saline with Tween-80
[11] = dose: 200.0 mg/kg/injection, schedule: Q01DX005 (ip), vehicle: saline with Tween-80
[12] = dose: 50.0 mg/kg/injection, schedule: Q01DX005 (ip), vehicle: Klucel (hydroxypropylcellulose) (HPC)
[13] = dose: 100.0 mg/kg/injection, schedule: Q01DX005 (ip), vehicle: Klucel (hydroxypropylcellulose) (HPC)
[14] = dose: 240.0 mg/kg/injection, schedule: Q01DX005 (ip), vehicle: saline with Tween-80
[15] = dose: 100.0 mg/kg/injection, schedule: Q01DX009 (ip), vehicle: saline with Tween-80

Measured: T/C

O=[N+]([O-])[O][Sn]([O][Sn]([O][N+](=O)[O-])([c]1ccccc1)[c]1ccccc1)([c]1ccccc1)[c]1ccccc1
inactive: dose: 1.56 mg/kg/injection, schedule: Q01DX005 (ip), vehicle: Klucel (hydroxypropylcellulose) (HPC) 102 % of control | dose: 3.12 mg/kg/injection, schedule: Q01DX005 (ip), vehicle: Klucel (hydroxypropylcellulose) (HPC) 99 % of control | dose: 6.25 mg/kg/injection, schedule: Q01DX005 (ip), vehicle: Klucel (hydroxypropylcellulose) (HPC) 97 % of control | dose: 12.5 mg/kg/injection, schedule: Q01DX005 (ip), vehicle: Klucel (hydroxypropylcellulose) (HPC) 122 % of control | dose: 12.5 mg/kg/injection, schedule: Q01DX005 (ip), vehicle: saline 96 % of control

COc1cc(OC)c(C2c3cc4c(cc3OC(C)(O)C2C)OCO4)c(OC)c1 (configuration not stated)
inactive: [1] 94 % of control | [2] 89 % of control | [3] 102 % of control

[Cl][Hg][CH]1CCC2OC1CC[CH]2[Hg][Cl] (configuration not stated)
inactive: dose: 1.56 mg/kg/injection, schedule: Q01DX009 (ip), vehicle: saline with Tween-80 112 % of control | dose: 3.12 mg/kg/injection, schedule: Q01DX009 (ip), vehicle: saline with Tween-80 105 % of control and 118 % of control | dose: 6.25 mg/kg/injection, schedule: Q01DX009 (ip), vehicle: saline with Tween-80 121 % of control and 91 % of control | [4] 94 % of control

CC(C)C1C(=O)NC(c2ccc(N)cc2)c2ccccc21 (configuration not stated)
inactive: [4] 104 % of control | [5] 94 % of control | [6] 93 % of control | dose: 50.0 mg/kg/injection, schedule: Q01DX009 (ip), vehicle: saline 105 % of control | dose: 200.0 mg/kg/injection, schedule: Q01DX009 (ip), vehicle: saline 90 % of control

Nc1nc(SCc2ccccn2)c2[nH]cnc2n1
inactive: dose: 66.0 mg/kg/injection, schedule: Q04DX003 (ip), vehicle: Klucel (hydroxypropylcellulose) (HPC) 122 % of control

CC(=O)/C(=C\c1ccc([N+](=O)[O-])o1)C(=O)CCN(C)C
inactive: dose: 7.5 mg/kg/injection, schedule: Q01DX005 (ip), vehicle: Klucel (hydroxypropylcellulose) (HPC) 97 % of control | dose: 15.0 mg/kg/injection, schedule: Q01DX005 (ip), vehicle: Klucel (hydroxypropylcellulose) (HPC) 107 % of control

CC(/C=N/Nc1ccccc1)=N\N=c1/scc(-c2ccc(Br)cc2)n1-c1ccc(Cl)cc1
inactive: dose: 12.5 mg/kg/injection, schedule: Q01DX001 (ip), vehicle: saline with Tween-80 98 % of control | dose: 25.0 mg/kg/injection, schedule: Q01DX001 (ip), vehicle: saline with Tween-80 89 % of control | dose: 50.0 mg/kg/injection, schedule: Q01DX001 (ip), vehicle: saline with Tween-80 86 % of control

N#Cc1ccc(OC(=O)Nc2ccccc2C(F)(F)F)cc1
inactive: [7] 86 % of control | [8] 87 % of control

CCn1c2ccccc2c2cc(N=Nc3cc(N)ccc3N(C)C)ccc21
inactive: [9] 87 % of control | [10] 87 % of control | [11] 87 % of control

C[S+](C)CCCNC(=O)c1csc(-c2cscn2)n1
inactive: dose: 6.25 mg/kg/injection, schedule: Q01DX005 (ip), vehicle: water 101 % of control | dose: 12.5 mg/kg/injection, schedule: Q01DX005 (ip), vehicle: water 96 % of control | dose: 25.0 mg/kg/injection, schedule: Q01DX005 (ip), vehicle: water 101 % of control

CC(C)(C)N1C(=O)C(c2ccccc2)(c2ccccc2)C1/C=C/c1ccccc1 (configuration not stated)
inactive: [12] 93 % of control | [13] 90 % of control

CCCCCCCC(=O)Nc1cc(C)ccc1C
inactive: dose: 100.0 mg/kg/injection, schedule: Q04DX003 (ip), vehicle: saline with Tween-80 100 % of control | dose: 200.0 mg/kg/injection, schedule: Q04DX003 (ip), vehicle: saline with Tween-80 86 % of control | dose: 400.0 mg/kg/injection, schedule: Q04DX003 (ip), vehicle: saline with Tween-80 90 % of control

CN(C)/C=N/NC(=O)c1ccccc1N
inactive: [7] 101 % of control | [8] 101 % of control | [14] 100 % of control

O=c1cc(-c2ccccc2)[nH]c2[nH]n(-c3ccccc3)c(=O)c12
inactive: [7] 110 % of control | [8] 104 % of control | [14] 94 % of control

O=c1c(CCl)c(-c2ccc([N+](=O)[O-])cc2)sc2ccccc12
inactive: [1] 100 % of control | [2] 98 % of control | [3] 92 % of control

Cc1cccc(Br)[n+]1[O-]
inactive: dose: 12.5 mg/kg/injection, schedule: Q01DX001 (ip), vehicle: saline 100 % of control | dose: 25.0 mg/kg/injection, schedule: Q01DX001 (ip), vehicle: saline 109 % of control | dose: 50.0 mg/kg/injection, schedule: Q01DX001 (ip), vehicle: saline 100 % of control

CN(O)C(=O)C(C)(C)C
inactive: [10] 99 % of control | [11] 103 % of control | dose: 400.0 mg/kg/injection, schedule: Q01DX005 (ip), vehicle: saline with Tween-80 103 % of control

C[C@]12Cc3cnc(N)nc3C[C@@H]1CC[C@@H]1[C@@H]2CC[C@@]2(C)[C@H]1CC[C@]2(C)O
inactive: [9] 99 % of control | [10] 89 % of control | [11] 89 % of control

O=C(O)C1Cc2nc[nH]c2CN1CO (configuration not stated)
inactive: [5] 100 % of control | [6] 109 % of control and 114 % of control | [15] 119 % of control and 120 % of control

O=C1C(Cl)=C(Cl)C(=O)C2=C1C1c3ccccc3C2c2ccccc21
inactive: dose: 100.0 mg/kg/injection, schedule: Q01DX009 (ip), vehicle: saline sonified 105 % of control | dose: 200.0 mg/kg/injection, schedule: Q01DX009 (ip), vehicle: saline sonified 110 % of control | dose: 400.0 mg/kg/injection, schedule: Q01DX009 (ip), vehicle: saline sonified 100 % of control

Cc1[nH]nc2c1CC(c1ccccc1)NC2=O (configuration not stated)
inactive: [9] 92 % of control | [10] 94 % of control | [11] 94 % of control

CCOC(=O)C(F)C(Br)C(=O)OCC (configuration not stated)
inactive: [5] 105 % of control and 120 % of control | [6] 117 % of control | [15] 123 % of control

O=C(CNC(=O)Nc1cccc(C(F)(F)F)c1)NNC(=O)Nc1ccc(Cl)c([N+](=O)[O-])c1
inactive: [7] 92 % of control | [8] 87 % of control | [14] 92 % of control

COc1cc(/C=N/NP(=S)(Oc2ccc(C(C)(C)C)cc2)Oc2ccc(C(C)(C)C)cc2)cc(OC)c1O
inactive: dose: 50.0 mg/kg/injection, schedule: Q01DX009 (ip), vehicle: Klucel (hydroxypropylcellulose) (HPC) 99 % of control | dose: 100.0 mg/kg/injection, schedule: Q01DX009 (ip), vehicle: Klucel (hydroxypropylcellulose) (HPC) 99 % of control

Cc1ccc(-c2cc(=O)c3cccc(CC(=O)O)c3o2)cc1
inactive: dose: 25.0 mg/kg/injection, schedule: Q01DX005 (ip), vehicle: Klucel (hydroxypropylcellulose) (HPC) 112 % of control and 89 % of control | [12] 104 % of control and 118 % of control | [13] 119 % of control and 90 % of control

NC1CNC(C(=O)O)=C(CC(=O)O)C1=O (configuration not stated)
inactive: dose: 4.25 mg/kg/injection, schedule: Q01DX005 (ip), vehicle: sodium bicarbonate 101 % of control | dose: 8.5 mg/kg/injection, schedule: Q01DX005 (ip), vehicle: sodium bicarbonate 99 % of control | dose: 17.0 mg/kg/injection, schedule: Q01DX005 (ip), vehicle: sodium bicarbonate 106 % of control | dose: 34.0 mg/kg/injection, schedule: Q01DX005 (ip), vehicle: sodium bicarbonate 99 % of control

CCOC(=O)c1cc(Cl)ccc1OS(N)(=O)=O
inactive: dose: 60.0 mg/kg/injection, schedule: Q01DX005 (ip), vehicle: Klucel (hydroxypropylcellulose) (HPC) 105 % of control | dose: 120.0 mg/kg/injection, schedule: Q01DX005 (ip), vehicle: Klucel (hydroxypropylcellulose) (HPC) 100 % of control | dose: 240.0 mg/kg/injection, schedule: Q01DX005 (ip), vehicle: Klucel (hydroxypropylcellulose) (HPC) 99 % of control

Cn1c2c(c3cc(I)ccc31)CCc1cncnc1-2
inactive: dose: 37.5 mg/kg/injection, schedule: Q01DX001 (ip), vehicle: Klucel (hydroxypropylcellulose) (HPC) 102 % of control | dose: 75.0 mg/kg/injection, schedule: Q01DX001 (ip), vehicle: Klucel (hydroxypropylcellulose) (HPC) 91 % of control | dose: 150.0 mg/kg/injection, schedule: Q01DX001 (ip), vehicle: Klucel (hydroxypropylcellulose) (HPC) 91 % of control

[NH-]C(CCC(N)=O)C(=O)O.[NH-]C(CCCN=C(N)N)C(=O)O.[Zn+2] (configuration not stated)
inactive: dose: 25.0 mg/kg/injection, schedule: Q01DX005 (ip), vehicle: saline 100 % of control and 106 % of control | dose: 50.0 mg/kg/injection, schedule: Q01DX005 (ip), vehicle: saline 103 % of control and 106 % of control | dose: 100.0 mg/kg/injection, schedule: Q01DX005 (ip), vehicle: saline 110 % of control and 119 % of control
